System: SCID mice
Assay: Preclinical dosimetry from biodistribution in mice, extrapolated to 70-kg Standard Adult (OLINDA/EXM 1.0)
Format: in vivo
Details: […] bladder voiding interval
Description: 3-5 mice were injected per timepoint with a mean 25.6±3.6 MBq of 18F-rhPSMA-7 and 28.5±4.8 MBq of 18F-rhPSMA-7.3, respectively. Mice, severe combined immunodeficiency (SCID) were used for the experiments.
Mice were sacrificed at the following timepoints: • ^18F-rhPSMA-7: 10, 20, 40, 60, 120 and 180 minutes after administration. • ^18F-rhPSMA-7.3: 10, 60, 120, 180 and 300 minutes after administration.
Urine, blood, heart, lung, spleen, pancreas, liver, stomach (emptied), small intestine (emptied), large intestine (emptied), kidneys, bladder, testis, fat, muscle (partial, femoral), femur, tail and brain. Urine was collected with a pipette in the CO2 gas chamber. In case of missing urination in the chamber the bladder was aspirated with an insulin syringe. Blood was withdrawn instantly after sacrifice with an insulin syringe from the heart. All other tissues and organs were dissected and transferred directly in plastic containers.
The counting rates of measurement samples were automatically corrected for decay. The radioactivity distribution ratios (unit: percentage of the injected dose (% ID) in the measurement samples were determined using the equation below. The sum of the counting rates from all measurement samples obtained from one mouse was designated as the counting rate for administrated radioactivity.
The radioactivity distribution ratio per unit weight of the measurement sample (unit: % ID/g) excluding urine and feces samples was determined by using the equation below. The weight of the measurement sample was determined by subtraction of the empty measurement container from the container including the sample.
For consistency of statistical calculations for each radiotracer the same number of time-points for ^18F-rhPSMA-7 and ^18F-rhPSMA-7.3 was used. Therefore, for ^18F-rhPSMA-7 the 10 min and 20 min time points were combined creating a 15 min endpoint.
The time-integral of activity for the accumulation in the significant source organs (AUCs) were generated both with numerical integration and physical decay according to J Juan et al., Journal of Pharmaceutical Sciences, 1993, 82:762-763.
In brief, to calculate a human dosimetry from the biodistribution in the mice, an extrapolation was necessary to account for the differences between the animals and humans. Normal-organ radiation doses were estimated for the 70-kg Standard Adult anatomic model using time-depending organ activity concentrations (in percent of the injected dose per gram, % ID/g) and total-body activities measured in the biodistribution studies in mice.
Tissue activity concentrations in mice were converted to tissue fractional activities in the 70-kg Standard Adult using the relative fractional organ masses in the Standard Adult and the “standard” 25-gramm mouse. Time-dependent total-body activity was fit to an exponential function and the difference between the injected activity and the total-body activity was assumed to be excreted to the urine because activity concentrations in the liver and GI tracer were low at all time points studied.
Organ residence time was calculated by numerical integration using the trapezoidal rule and the rest-of-body ^18F residence times was calculated as the difference between the total-body residence time and the sum of the organ and urine residence times. The bladder contents residence time was estimated using the dynamic voiding model in the OLINDA/EXM 1.0 dosimetry software. Finally, the Standard Adult mean organ dose equivalents (in mSv/MBq) and effective dose (also in mSv/MBq) were then calculated using OLIN DA/EXM 1.0.
Final calculation of radiation absorbed dose and dosimetry from biodistribution in mice: The tissues or organs in which a significant accumulation of radioactivity occurs (i.e., source organ) were kidney, spleen, lung, liver and heart. With respect to activity accumulation and clearance, a rapid clearance from blood and clearance to urine but relatively slow build-up in kidney was found.

## [^19F][^natGa]D/L-Dap-R/S-DOTAGA-rhPSMA7 [rhPSMA7-rac]
  Adrenals ED Cont.: 3.90E−05 mSv/MBq
  Adrenals EDE Cont.: 0.00E000 mSv/MBq
  Adrenals dose Alpha: 0.00E000 mSv/MBq
  Adrenals dose Beta: 1.95E−03 mSv/MBq
  Adrenals dose Photon: 5.85E−03 mSv/MBq
  Adrenals dose Total: 7.80E−03 mSv/MBq
  Brain ED Cont.: 2.24E−05 mSv/MBq
  Brain EDE Cont.: 0.00E000 mSv/MBq
  Brain dose Alpha: 0.00E000 mSv/MBq
  Brain dose Beta: 1.95E−03 mSv/MBq
  Brain dose Photon: 2.54E−03 mSv/MBq
  Brain dose Total: 4.49E−03 mSv/MBq
  Breasts ED Cont.: 2.12E−04 mSv/MBq
  Breasts EDE Cont.: 6.36E−04 mSv/MBq
  Breasts dose Alpha: 0.00E000 mSv/MBq
  Breasts dose Beta: 1.95E−03 mSv/MBq
  Breasts dose Photon: 2.29E−03 mSv/MBq
  Breasts dose Total: 4.24E−03 mSv/MBq
  Gallbladder Wall ED Cont.: 0.00E000 mSv/MBq
  Gallbladder Wall EDE Cont.: 0.00E000 mSv/MBq
  Gallbladder Wall dose Alpha: 0.00E000 mSv/MBq
  Gallbladder Wall dose Beta: 1.95E−03 mSv/MBq
  Gallbladder Wall dose Photon: 5.54E−03 mSv/MBq
  Gallbladder Wall dose Total: 7.49E−03 mSv/MBq
  Heart Wall ED Cont.: 0.00E000 mSv/MBq
  Heart Wall EDE Cont.: 0.00E000 mSv/MBq
  Heart Wall dose Alpha: 0.00E000 mSv/MBq
  Heart Wall dose Beta: 8.82E−04 mSv/MBq
  Heart Wall dose Photon: 3.54E−03 mSv/MBq
  Heart Wall dose Total: 4.42E−03 mSv/MBq
  Kidneys ED Cont.: 3.25E−04 mSv/MBq
  Kidneys EDE Cont.: 3.91E−03 mSv/MBq
  Kidneys dose Alpha: 0.00E000 mSv/MBq
  Kidneys dose Beta: 4.70E−02 mSv/MBq
  Kidneys dose Photon: 1.80E−02 mSv/MBq
  Kidneys dose Total: 6.51E−02 mSv/MBq
  LLI Wall ED Cont.: 1.93E−03 mSv/MBq
  LLI Wall EDE Cont.: 9.66E−04 mSv/MBq
  LLI Wall dose Alpha: 0.00E000 mSv/MBq
  LLI Wall dose Beta: 1.95E−03 mSv/MBq
  LLI Wall dose Photon: 1.41E−02 mSv/MBq
  LLI Wall dose Total: 1.61E−02 mSv/MBq
  Liver ED Cont.: 2.13E−04 mSv/MBq
  Liver EDE Cont.: 0.00E000 mSv/MBq
  Liver dose Alpha: 0.00E000 mSv/MBq
  Liver dose Beta: 6.35E−04 mSv/MBq
  Liver dose Photon: 3.63E−03 mSv/MBq
  Liver dose Total: 4.27E−03 mSv/MBq
  Lungs ED Cont.: 5.16E−04 mSv/MBq
  Lungs EDE Cont.: 5.16E−04 mSv/MBq
  Lungs dose Alpha: 0.00E000 mSv/MBq
  Lungs dose Beta: 1.25E−03 mSv/MBq
  Lungs dose Photon: 3.04E−03 mSv/MBq
  Lungs dose Total: 4.30E−03 mSv/MBq
  Muscle ED Cont.: 3.84E−05 mSv/MBq
  Muscle EDE Cont.: 0.00E000 mSv/MBq
  Muscle dose Alpha: 0.00E000 mSv/MBq
  Muscle dose Beta: 1.95E−03 mSv/MBq
  Muscle dose Photon: 5.73E−03 mSv/MBq
  Muscle dose Total: 7.68E−03 mSv/MBq
  Osteogenic Cells ED Cont.: 8.93E−05 mSv/MBq
  Osteogenic Cells EDE Cont.: 2.68E−04 mSv/MBq
  Osteogenic Cells dose Alpha: 0.00E000 mSv/MBq
  Osteogenic Cells dose Beta: 4.18E−03 mSv/MBq
  Osteogenic Cells dose Photon: 4.75E−03 mSv/MBq
  Osteogenic Cells dose Total: 8.93E−03 mSv/MBq
  Ovaries ED Cont.: 3.09E−03 mSv/MBq
  Ovaries EDE Cont.: 3.87E−03 mSv/MBq
  Ovaries dose Alpha: 0.00E000 mSv/MBq
  Ovaries dose Beta: 1.95E−03 mSv/MBq
  Ovaries dose Photon: 1.35E−02 mSv/MBq
  Ovaries dose Total: 1.55E−02 mSv/MBq
  Pancreas ED Cont.: 4.04E−05 mSv/MBq
  Pancreas EDE Cont.: 0.00E000 mSv/MBq
  Pancreas dose Alpha: 0.00E000 mSv/MBq
  Pancreas dose Beta: 1.95E−03 mSv/MBq
  Pancreas dose Photon: 6.13E−03 mSv/MBq
  Pancreas dose Total: 8.08E−03 mSv/MBq
  Red Marrow ED Cont.: 8.16E−04 mSv/MBq
  Red Marrow EDE Cont.: 8.16E−04 mSv/MBq
  Red Marrow dose Alpha: 0.00E000 mSv/MBq
  Red Marrow dose Beta: 1.39E−03 mSv/MBq
  Red Marrow dose Photon: 5.41E−03 mSv/MBq
  Red Marrow dose Total: 6.80E−03 mSv/MBq
  Skin ED Cont.: 4.93E−05 mSv/MBq
  Skin EDE Cont.: 0.00E000 mSv/MBq
  Skin dose Alpha: 0.00E000 mSv/MBq
  Skin dose Beta: 1.95E−03 mSv/MBq
  Skin dose Photon: 2.98E−03 mSv/MBq
  Skin dose Total: 4.93E−03 mSv/MBq
  Small Intestine ED Cont.: 5.18E−05 mSv/MBq
  Small Intestine EDE Cont.: 0.00E000 mSv/MBq
  Small Intestine dose Alpha: 0.00E000 mSv/MBq
  Small Intestine dose Beta: 1.95E−03 mSv/MBq
  Small Intestine dose Photon: 8.40E−03 mSv/MBq
  Small Intestine dose Total: 1.04E−02 mSv/MBq
  Spleen ED Cont.: 1.30E−04 mSv/MBq
  Spleen EDE Cont.: 1.56E−03 mSv/MBq
  Spleen dose Alpha: 0.00E000 mSv/MBq
  Spleen dose Beta: 1.59E−02 mSv/MBq
  Spleen dose Photon: 1.01E−02 mSv/MBq
  Spleen dose Total: 2.61E−02 mSv/MBq
  Stomach Wall ED Cont.: 8.40E−04 mSv/MBq
  Stomach Wall EDE Cont.: 0.00E000 mSv/MBq
  Stomach Wall dose Alpha: 0.00E000 mSv/MBq
  Stomach Wall dose Beta: 1.95E−03 mSv/MBq
  Stomach Wall dose Photon: 5.05E−03 mSv/MBq
  Stomach Wall dose Total: 7.00E−03 mSv/MBq
  Testes ED Cont.: 0.00E000 mSv/MBq
  Testes EDE Cont.: 0.00E000 mSv/MBq
  Testes dose Alpha: 0.00E000 mSv/MBq
  Testes dose Beta: 1.95E−03 mSv/MBq
  Testes dose Photon: 9.69E−03 mSv/MBq
  Testes dose Total: 1.16E−02 mSv/MBq
  Thymus ED Cont.: 2.59E−05 mSv/MBq
  Thymus EDE Cont.: 0.00E000 mSv/MBq
  Thymus dose Alpha: 0.00E000 mSv/MBq
  Thymus dose Beta: 1.95E−03 mSv/MBq
  Thymus dose Photon: 3.24E−03 mSv/MBq
  Thymus dose Total: 5.18E−03 mSv/MBq
  Thyroid ED Cont.: 2.59E−04 mSv/MBq
  Thyroid EDE Cont.: 1.55E−04 mSv/MBq
  Thyroid dose Alpha: 0.00E000 mSv/MBq
  Thyroid dose Beta: 1.95E−03 mSv/MBq
  Thyroid dose Photon: 3.23E−03 mSv/MBq
  Thyroid dose Total: 5.18E−03 mSv/MBq
  Total Body ED Cont.: 0.00E000 mSv/MBq
  Total Body EDE Cont.: 0.00E000 mSv/MBq
  Total Body dose Alpha: 0.00E000 mSv/MBq
  Total Body dose Beta: 2.37E−03 mSv/MBq
  Total Body dose Photon: 5.39E−03 mSv/MBq
  Total Body dose Total: 7.77E−03 mSv/MBq
  ULI Wall ED Cont.: 4.63E−05 mSv/MBq
  ULI Wall EDE Cont.: 0.00E000 mSv/MBq
  ULI Wall dose Alpha: 0.00E000 mSv/MBq
  ULI Wall dose Beta: 1.95E−03 mSv/MBq
  ULI Wall dose Photon: 7.31E−03 mSv/MBq
  ULI Wall dose Total: 9.26E−03 mSv/MBq
  Urinary Bladder Wall ED Cont.: 1.77E−02 mSv/MBq
  Urinary Bladder Wall EDE Cont.: 2.12E−02 mSv/MBq
  Urinary Bladder Wall dose Alpha: 0.00E000 mSv/MBq
  Urinary Bladder Wall dose Beta: 2.45E−01 mSv/MBq
  Urinary Bladder Wall dose Photon: 1.08E−01 mSv/MBq
  Urinary Bladder Wall dose Total: 3.54E−01 mSv/MBq
  Uterus ED Cont.: 1.40E−04 mSv/MBq
  Uterus EDE Cont.: 1.68E−03 mSv/MBq
  Uterus dose Alpha: 0.00E000 mSv/MBq
  Uterus dose Beta: 1.95E−03 mSv/MBq
  Uterus dose Photon: 2.61E−02 mSv/MBq
  Uterus dose Total: 2.80E−02 mSv/MBq
